According to PMC9544171, “Glucose‐dependent insulinotropic polypeptide receptor antagonist treatment causes a reduction in weight gain in ovariectomised high fat diet‐fed mice” (British Journal of Pharmacology, 2022):
Where a SMILES comes first, the peptide text is derived from it. The star is where a group is joined. C16 diacid = O=C(O)CCCCCCCCCCCCCCC(=O)*

Experiments:
[1] = Pharmacokinetic analysis after s.c. administration, plasma radioimmunoassay; assay type: in vivo; conditions: sc, female C57Bl/6 mice, single s.c. 300 nmol·kg−1 (6 nmol per mouse), in‐house radioimmunoassay
Protocol: To assess mGIPAnt‐1 half‐life following subcutaneous (s.c.) administration, mice (n = 6) received a single s.c. administration of 300‐nmol·kg^−1 mGIPAnt‐1. Retro‐orbital blood samples (50 μl) were taken using EDTA coated glass capillaries at (1) t = 0, 0.5, 1, 1.5, 2 and 2.5 h, (2) t = 2.5, 3, 4, 6, 8 and 22 h, or (3) t = 22, 24, 26, 28, 30 and 32 h and immediately added to Eppendorf tubes (Eppendorf, Hamburg, Germany) and centrifuged at 3500g, 20 min, 4°C. Plasma was transferred into Eppendorf tubes on dry ice and stored at −20°C for analysis.
mGIPAnt‐1 levels were measured by an in‐house radioimmunoassay using a polyclonal antibody recognizing a mid‐regional part of GIP (code no. 95234) (Gasbjerg et al., [2017]). mGIPAnt‐1 was used as standard and the assay buffer was a 80‐mM phosphate buffer pH 7.5, containing (in final concentrations) 0.1% HSA, 10‐mM EDTA, 500‐KIU ml^−1 aprotinin and 0.01‐mM valine pyrrolidide. Samples were carefully diluted to ensure that samples would fall within the measurable range of the assay. […]
Results are presented as mean ± SE. Data were analysed with one‐way and two‐way analysis of variance (ANOVA) with Tukey's or Sidak multiple comparisons test and Student's unpaired t tests where appropriate. […] For the in vitro data IC50 values were determined by nonlinear regression using GraphPad Prism 9 (San Diego, California, USA). […]

[2] = molecular target: T1, mouse GLP‐2 receptor (Mus musculus, UniProt Q5IXF8); assay: cAMP accumulation, agonism in transfected COS‐7 cells; assay type: cell-based; conditions: increasing concentrations, COS‐7, n = 5
T1 construct: host or cells: COS-7
T1 sequence (Q5IXF8 1-512): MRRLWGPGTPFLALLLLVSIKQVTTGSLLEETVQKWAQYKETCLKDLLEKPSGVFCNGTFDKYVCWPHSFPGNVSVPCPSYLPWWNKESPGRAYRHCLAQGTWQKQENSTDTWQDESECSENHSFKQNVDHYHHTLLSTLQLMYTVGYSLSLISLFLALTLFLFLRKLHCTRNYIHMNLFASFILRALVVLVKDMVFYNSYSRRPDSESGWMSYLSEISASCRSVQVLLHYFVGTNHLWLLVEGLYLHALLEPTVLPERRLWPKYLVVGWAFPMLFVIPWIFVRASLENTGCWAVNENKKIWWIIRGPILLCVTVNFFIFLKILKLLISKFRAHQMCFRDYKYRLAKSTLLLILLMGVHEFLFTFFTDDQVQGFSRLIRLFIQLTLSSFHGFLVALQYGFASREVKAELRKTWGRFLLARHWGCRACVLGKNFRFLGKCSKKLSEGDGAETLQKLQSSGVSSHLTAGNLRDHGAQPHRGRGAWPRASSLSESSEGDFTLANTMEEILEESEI
Protocol: COS‐7 cells were cultured at 10% CO2 and 37°C in Dulbecco's Modified Eagle Medium 1885 supplemented with 10% foetal bovine serum, 2‐mM glutamine, 180‐units ml^−1 penicillin and […] streptomycin. Transient transfection of the cells with either human or mouse GIP receptor was performed using the calcium phosphate precipitation method as previously described (van der Velden et al., [2021]). A second set of cells was transiently transfected with either mouse GLP‐1 or GLP‐2 receptor. Following the day after transfection, the cells were seeded in white 96‐well plates with a density of 35.000 cells per well. The next day the assay was initiated by washing the cells with HEPES buffered saline (HBS) followed by an incubation step with HBS and 1‐mM 3‐isobutyl‐1‐methylxanthine for 30 min at 37°C. For agonist studies, the ligands were then added and incubated for an additional 30 min at 37°C. To test for antagonistic properties, the cells were first preincubated for 10 min with the antagonist with subsequent addition of the agonist and incubated for an additional 20 min. The HitHunter® cAMP assay (Eurofins DiscoverX, Fremont, USA) was carried out according to the manufacturer's protocol. Luminescence was measured by PerkinElmer™ Envision 2014 Multilabel Reader.
FIGURE 2 In vitro signalling profile of mGIPAnt‐1 on the mouse GLP‐1 and GLP‐2 receptor (R). […]

[3] = test system: Female ovariectomised C57Bl6/J mice; assay: Oral glucose tolerance test after 7 weeks of treatment; assay type: in vivo, mouse
Protocol: After 7 weeks HFD and mGIPAnt‐1 treatment, an oral glucose tolerance test was performed. Animals were fasted from 08:00 AM to 11:00 AM and received 2‐g·kg^−1 glucose through oral gavage. Blood glucose was measured in the tail vein samples using a hand‐held glucometer (Accu‐Chek Mobile, Roche) at t = 0, 15, 30, 45, 60, 120 and 180 min. Retro‐orbital blood samples (75 μl) were taken using EDTA coated glass capillaries at t = 0, 15, 30 and 60 min and centrifuged at 3500g, 20 min, 4°C. Plasma was transferred into Eppendorf tubes on dry ice and stored at −20°C for later analysis of insulin measurements.
Insulin levels in intraperitoneal glucose tolerance test and oral glucose tolerance test plasma samples were measured using a mouse insulin ELISA (catalogue no. 10‐1247‐10; Mercodia AB, Uppsala, Sweden). Adiponectin levels in terminal plasma samples were measured using a mouse adiponectin ELISA kit (catalogue no. 80569, Crystal Chem, Elk Grove Village, IL, USA). Adiponectin samples were carefully diluted in kit‐specific assay buffer. The manufacturer's instructions were followed closely.

CC[C@H](C)[C@H](NC(=O)[C@H](CO)NC(=O)[C@H](Cc1ccc(O)cc1)NC(=O)[C@H](CC(=O)O)NC(=O)[C@H](CO)NC(=O)[C@@H](NC(=O)[C@H](Cc1ccccc1)NC(=O)[C@@H](NC(=O)CNC(=O)[C@@H](N)CCC(=O)O)[C@@H](C)O)[C@@H](C)CC)C(=O)N[C@@H](C)C(=O)N[C@@H](CCSC)C(=O)N[C@@H](CC(=O)O)C(=O)N[C@@H](CCCCN)C(=O)N[C@H](C(=O)N[C@@H](CCCCNC(=O)CCCCCCCCCCCCCCC(=O)O)C(=O)N[C@@H](CCC(N)=O)C(=O)N[C@@H](CCC(N)=O)C(=O)N[C@@H](CC(=O)O)C(=O)N[C@@H](Cc1ccccc1)C(=O)N[C@H](C(=O)N[C@@H](CC(N)=O)C(=O)N[C@@H](Cc1c[nH]c2ccccc12)C(=O)N[C@@H](CC(C)C)C(=O)N[C@@H](CC(C)C)C(=O)N[C@@H](C)C(=O)N[C@@H](CCC(N)=O)C(=O)N[C@@H](CCCCN)C(=O)NCC(=O)N[C@@H](CCCCN)C(=O)N[C@@H](CCCCN)C(=O)N[C@@H](CC(N)=O)C(=O)N[C@@H](CC(=O)O)C(=O)N[C@@H](Cc1c[nH]c2ccccc12)C(=O)N[C@@H](CCCCN)C(=O)N[C@@H](Cc1c[nH]cn1)C(=O)N[C@@H](CC(N)=O)C(=O)O)C(C)C)[C@@H](C)CC [mGIPAnt‐1] (H-EGTFISDYSIAMDKIK(C16 diacid)QQDFVNWLLAQKGKKNDWKHN-OH)
half-life ([1]; calculated between t = 1.5 h and 32 h, n = 6): ~7.2 h
Tmax ([1]; n = 6, read-out: time of peak plasma concentration): 1.5 h
activation of mouse GLP‐2 receptor (cAMP) [2]: does not induce activation
glucose curve and iAUC, OGTT ([3]; 7 weeks of 300 nmol·kg−1 s.c. daily, 2 g·kg−1 oral glucose): did not affect
insulin curve and iAUC, OGTT ([3]; 7 weeks of 300 nmol·kg−1 s.c. daily, 2 g·kg−1 oral glucose, ELISA): did not affect
fasting insulin levels ([3]; 7 weeks of treatment): not affected
fasting glucose levels, HFD ([3]; 7 weeks of treatment, versus Vehicle/HFD): significantly decreased
